Reference: ChEMBL document CHEMBL1139623, “4,5-Disubstituted cis-pyrrolidinones as inhibitors of type II 17beta-hydroxysteroid dehydrogenase. Part 2. SAR” (Bioorg Med Chem Lett, 2005)

Target: T1, 17-beta-hydroxysteroid dehydrogenase type 2 (Homo sapiens, UniProt P37059)
T1 sequence (P37059 whole entry): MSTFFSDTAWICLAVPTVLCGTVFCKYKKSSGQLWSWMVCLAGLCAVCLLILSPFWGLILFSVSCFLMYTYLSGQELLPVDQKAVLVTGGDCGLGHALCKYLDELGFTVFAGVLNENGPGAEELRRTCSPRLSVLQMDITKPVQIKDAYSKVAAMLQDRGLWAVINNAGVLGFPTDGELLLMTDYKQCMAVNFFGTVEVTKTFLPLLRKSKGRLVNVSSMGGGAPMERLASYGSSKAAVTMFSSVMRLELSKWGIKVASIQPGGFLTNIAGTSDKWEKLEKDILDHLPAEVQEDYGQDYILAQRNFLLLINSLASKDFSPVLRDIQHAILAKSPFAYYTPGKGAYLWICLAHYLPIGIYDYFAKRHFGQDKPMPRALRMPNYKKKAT
Test: Inhibitory concentration against 17 beta hydroxysteroid dehydrogenase type 2 (type II 17-beta-HSD II)

SMILES | IC50 [nM]
Cc1cccc([C@H](O)[C@H]2[C@@H](c3ccccc3)CC(=O)N2C)c1 | 1520
CN1C(=O)C[C@H](c2ccc([N+](=O)[O-])cc2)[C@@H]1[C@@H](O)c1ccc(-c2ccccc2)s1 | > 10000
CN1C(=O)C[C@H](c2ccccc2)[C@@H]1Cc1cccc(Cl)c1 | 2180
CN1C(=O)C[C@H](c2ccccc2)[C@@H]1[C@@H](O)CCc1ccccc1 | 1830
CN1C(=O)C[C@H](c2ccccc2)[C@@H]1[C@H](O)c1cccc(Cl)c1 | > 10000
CN1C(=O)C[C@H](c2ccccc2)[C@@H]1[C@@H](O)c1ccc(-c2ccccc2)o1 | 3240
O=C1C[C@H](c2ccccc2)[C@H]([C@@H](O)c2cccs2)N1Cc1ccccc1 | 4180
CN1C(=O)C[C@H](c2ccccc2)[C@@H]1C(=O)c1cccs1 | > 10000
Cc1ccc([C@H](O)[C@H]2[C@@H](c3ccccc3)CC(=O)N2C)cc1 | 1820
CN1C(=O)C[C@H](c2ccccc2)[C@@H]1[C@@H](O)C#Cc1cccc(O)c1 | 1760
CN1C(=O)C[C@H](c2ccccc2)[C@@H]1[C@@H](O)c1ccc(Cl)cc1 | 1960
CNc1ccc([C@H]2CC(=O)N(C)[C@H]2[C@@H](O)c2ccc(-c3ccccc3)s2)cc1 | 1670
CN1C(=O)C[C@H](c2ccccc2)[C@@H]1[C@@H](O)c1ccco1 | 3180
CN1C(=O)C[C@H](c2ccccc2)[C@@H]1[C@@H](O)c1ccccc1 | 5000
CN1C(=O)C[C@H](c2ccccc2)[C@@H]1[C@@H](O)Cc1cccc(Cl)c1 | 2390
CN1C(=O)C[C@H](c2ccccc2)[C@@H]1[C@@H](O)C(C)(C)C | > 10000

SMILES | IC50 [nM]
CN(C)c1ccc([C@H](O)[C@H]2[C@@H](c3ccccc3)CC(=O)N2C)cc1 | 1650
CN1C(=O)C[C@H](c2ccccc2)[C@@H]1[C@@H](O)C#Cc1ccccn1 | 1500
CN(C)c1ccc([C@H]2CC(=O)N(C)[C@H]2[C@@H](O)c2ccc(-c3ccccc3)s2)cc1 | 2430
CN1C(=O)C[C@H](c2ccccc2)[C@@H]1[C@@H](O)c1cc2ccccc2[nH]1 | > 10000
CN1C(=O)C[C@H](c2ccccc2)[C@@H]1[C@@H](O)c1cccc(-c2ccc(F)cc2)c1 | 2780
CC(=O)Nc1ccc([C@H]2CC(=O)N(C)[C@H]2[C@@H](O)c2ccc(-c3ccccc3)s2)cc1 | > 10000
CN1C(=O)C[C@H](c2ccccc2)[C@@H]1[C@@H](O)CCc1ccc(F)cc1 | 1530
CN1C(=O)C[C@H](c2ccccc2)[C@@H]1C(F)c1cccs1 (some centres not stated) | 2980
CN1C(=O)C[C@H](c2ccccc2)[C@@H]1[C@@H](OCCO)c1cccs1 | > 10000
CN1C(=O)C[C@H](c2ccccc2)[C@@H]1[C@@H](O)c1csc2ccccc12 | 2660
CO[C@@H](c1cccs1)[C@H]1[C@@H](c2ccccc2)CC(=O)N1C | 3910
O=C1C[C@H](c2ccccc2)[C@H]([C@@H](O)c2cccs2)N1 | > 10000
CN1C(=O)C[C@H](c2ccccc2)[C@@H]1C(=O)c1cccc(Cl)c1 | > 10000
CN1C(=O)C[C@H](c2ccc(NS(C)(=O)=O)cc2)[C@@H]1[C@@H](O)c1ccc(-c2ccccc2)s1 | > 10000
CN1CC[C@H](c2ccccc2)[C@@H]1[C@@H](O)c1cccs1 | > 10000
CN1C(=S)C[C@H](c2ccccc2)[C@@H]1[C@@H](O)c1cccs1 | > 10000

Stronger by IC50, values ahead:

IC50 [nM] | SMILES
590 | CN1C(=O)C[C@H](c2ccccc2)[C@@H]1[C@@H](O)c1cc2ccccc2s1
1130 | CN1C(=O)C[C@H](c2ccccc2)[C@@H]1[C@@H](O)c1ccc(-c2ccc(O)cc2)cc1
880 | CN1C(=O)C[C@H](c2ccccc2)[C@@H]1[C@@H](O)c1cccc(C(F)(F)F)c1
960 | CN1C(=O)C[C@H](c2ccccc2)[C@@H]1[C@@H](O)c1ccc2c(c1)OCO2
420 | CN1C(=O)C[C@H](c2ccccc2)[C@@H]1[C@@H](O)c1cccc(-c2ccccc2)c1
400 | CN1C(=O)C[C@H](c2ccccc2)[C@@H]1[C@@H](O)c1cccs1
810 | COc1cccc([C@H](O)[C@H]2[C@@H](c3ccccc3)CC(=O)N2C)c1
430 | CN1C(=O)C[C@H](c2ccccc2)[C@@H]1[C@@H](O)C#Cc1ccccc1
440 | CN1C(=O)C[C@H](c2ccccc2)[C@@H]1[C@@H](O)c1ccc(Cl)c(Cl)c1
1090 | COc1cccc(C#C[C@H](O)[C@H]2[C@@H](c3ccccc3)CC(=O)N2C)c1
320 | CN1C(=O)C[C@H](c2ccccc2)[C@@H]1[C@@H](O)C#Cc1ccccc1F
1270 | CN1C(=O)C[C@H](c2ccccc2)[C@@H]1[C@@H](O)c1ccc(Br)o1
900 | CO[C@@H](c1cccc(Cl)c1)[C@H]1[C@@H](c2ccccc2)CC(=O)N1C
480 | CN1C(=O)C[C@H](c2ccccc2)[C@@H]1[C@@H](O)C#Cc1ccc(F)cc1
1260 | CN1C(=O)C[C@H](c2ccccc2)[C@@H]1[C@@H](O)c1ccc(-c2ccc(F)cc2)cc1
190 | CN1C(=O)C[C@H](c2ccc(N)cc2)[C@@H]1[C@@H](O)c1ccc(-c2ccccc2)s1
1160 | CN1C(=O)C[C@H](c2ccccc2)[C@@H]1[C@@H](O)c1coc2ccccc12
1020 | CN1C(=O)C[C@H](c2ccccc2)[C@@H]1[C@@H](O)c1ccc(-c2ccccc2)cc1
220 | CN1C(=O)C[C@H](c2ccc(O)cc2)[C@@H]1[C@@H](O)c1ccc(-c2ccccc2)s1
560 | Cc1ccc([C@H](O)[C@H]2[C@@H](c3ccccc3)CC(=O)N2C)s1
1200 | CN1C(=O)C[C@H](c2ccccc2)[C@@H]1[C@@H](O)c1ccc(Br)s1
370 | CN1C(=O)C[C@H](c2ccccc2)[C@@H]1[C@@H](O)C#Cc1cccc(N)c1
800 | Cc1ccc(C#C[C@H](O)[C@H]2[C@@H](c3ccccc3)CC(=O)N2C)cc1
1230 | COc1ccc([C@H](O)[C@H]2[C@@H](c3ccccc3)CC(=O)N2C)cc1
1400 | CN1C(=O)C[C@H](c2ccccc2)[C@@H]1[C@@H](O)/C=C/c1ccc(F)cc1
1370 | CC(=O)O[C@@H](c1cccs1)[C@H]1[C@@H](c2ccccc2)CC(=O)N1C
300 | CN1C(=O)C[C@H](c2ccccc2)[C@@H]1[C@@H](O)C#Cc1ccccc1Cl
100 | CN1C(=O)C[C@H](c2ccccc2)[C@@H]1[C@@H](O)c1ccc(-c2ccccc2)s1
700 | CN1C(=O)C[C@H](c2ccccc2)[C@@H]1[C@@H](O)c1cccc(Cl)c1
890 | COc1ccc([C@H]2CC(=O)N(C)[C@H]2[C@@H](O)c2ccc(-c3ccccc3)s2)cc1
